Results from paper PMC9718554, “Discovery of a fragment hit compound targeting D-Ala:D-Ala ligase of bacterial peptidoglycan biosynthesis” (Journal of Enzyme Inhibition and Medicinal Chemistry, 2022).
Where two headings read alike, the source gives them in different places.

Target: T1, E. coli DdlB enzyme (D-alanine:D-alanine ligase) (Escherichia coli, UniProt P07862)
T1 construct: made in house; host or cells: E. coli
Experiment: biochemical
Details: read-out: DdlB RA; for remaining activity at 2100 µM: tested concentration 2.1 mM; for remaining activity at 2400 µM: tested concentration 2.4 mM; for remaining activity at 1700 µM: tested concentration 1.7 mM; for remaining activity at 1900 µM: tested concentration 1.9 mM; for remaining activity at 2000 µM: tested concentration 2.0 mM; for remaining activity at 1800 µM: tested concentration 1.8 mM; for remaining activity at 2500 µM: tested concentration 2.5 mM; for remaining activity at 2700 µM: tested concentration 2.7 mM; for remaining activity at 2600 µM: tested concentration 2.6 mM; for remaining activity at 2200 µM: tested concentration 2.2 mM; for remaining activity at 2300 µM: tested concentration 2.3 mM; for remaining activity at 2800 µM: tested concentration 2.8 mM; for remaining activity at 3100 µM: tested concentration 3.1 mM

CCS(=O)(=O)N1CCC(C(=O)N2CCCCC2)CC1 [Compound Y050-2528]
remaining activity at 2100 µM (residual activity): 97%

CC(C)CS(=O)(=O)N1CCc2ccccc2C1 [Compound Y200-6914]
remaining activity at 2400 µM: 73%

Cc1ccc(S(N)(=O)=O)cc1NC(=O)c1cccnc1 [Compound Y202-7310]
remaining activity at 1700 µM: 100%

CCS(=O)(=O)Nc1c(C)cc(C)cc1C [Compound Y202-7340]
remaining activity at 2400 µM: 90%

CC1CN(S(=O)(=O)c2ccc(F)c(F)c2)CC(C)O1 (stereo not shown) [Compound Y202-8173]
remaining activity at 2100 µM (residual activity): 95%

O=C(Nc1cccc(F)c1)[C@H]1CCCC[C@H]1C(=O)O [Compound Y203-6612]
remaining activity at 1900 µM (fragment library screening): 93%

O=C(Nc1cccnc1)[C@H]1CCCC[C@H]1C(=O)O [Compound Y203-7528]
remaining activity at 2000 µM (fragment library screening): 91%

CCC(CC)C(=O)Nc1ccc(S(N)(=O)=O)cc1 [Compound Y203-8619]
remaining activity at 1800 µM: 81%

O=C(NC1CCCC1)[C@H]1CCCC[C@H]1C(=O)O [Compound Y203-9770]
remaining activity at 2100 µM: 91%

Cc1cc(C)n(C(=O)C2CC=CCC2C(=O)O)n1 (stereo not shown) [Compound Y203-9842]
remaining activity at 2000 µM: 90%

O=C(O)C1CCCCC1C(=O)NCc1ccc(F)cc1 (stereo not shown) [Compound Y204-1009]
remaining activity at 1800 µM: 95%

O=C(NCc1ccncc1)[C@H]1CC=CC[C@H]1C(=O)O [Compound Y204-2545]
remaining activity at 1900 µM (fragment library screening): 75%

NS(=O)(=O)c1ccc(NC(=O)CCC2CCCC2)cc1 [Compound Y204-2561]
remaining activity at 1700 µM: 87%

N#CCC(=O)N(c1ccccc1)c1ccccc1 [Compound Y204-3664]
remaining activity at 2500 µM: 89%

O=C(O)CCCC(=O)N1CCN(c2ccccc2)CC1 [Compound Y204-6418]
remaining activity at 1800 µM (fragment library screening): 99%

O=C(O)C1C2CCC(C2)C1C(=O)NC1CC1 (stereo not shown) [Compound Y205-0716]
remaining activity at 2700 µM: 93%

NS(=O)(=O)c1ccc(CNC(=O)c2ccncc2)cc1 [Compound Y205-1594]
remaining activity at 1700 µM: 102%

CCS(=O)(=O)Nc1cc(C(C)(C)C)on1 [Compound Y206-0720]
remaining activity at 2600 µM: 91%

O=C(O)CCC(=O)NC1C2CC3CC(C2)CC1C3 (stereo not shown) [Compound Y206-2966]
remaining activity at 2000 µM: 90%

Cc1ccc2c(c1)CCCN2C(=O)CCC(=O)O [Compound Y206-3286]
remaining activity at 2000 µM (fragment library screening): 90%

O=C(O)[C@@H]1[C@H]2CC[C@H](CC2)[C@@H]1C(=O)NCc1ccco1 [Compound Y206-3693]
remaining activity at 1800 µM (fragment library screening): 92%

CC1CCCCC1NS(=O)(=O)c1ccccc1 (stereo not shown) [Compound Y206-4071]
remaining activity at 2200 µM: 91%

Cc1ccc(S(=O)(=O)NC2CC2)c(C)c1 [Compound Y206-5066]
remaining activity at 2700 µM: 94%

Cc1c(C)c(C)c(S(=O)(=O)NC(C)C)c(C)c1C [Compound Y206-5269]
remaining activity at 2200 µM (residual activity): 77%

O=S(=O)(c1ccccc1)N1CCN2CCCC2C1 (stereo not shown) [Compound Y206-5298]
remaining activity at 2300 µM (residual activity): 92%

CN(C)CC(=O)Nc1ccc(Cl)cn1 [Compound Y206-6252]
remaining activity at 2300 µM: 95%

CCS(=O)(=O)Nc1cccc(F)c1 [Compound Y207-1326]
remaining activity at 3000 µM (tested concentration 3.0 mM): 92%

NS(=O)(=O)c1ccc(CNC(=O)C2CCCC2)cc1 [Compound Y207-3980]
remaining activity at 1800 µM: 93%

CNS(=O)(=O)c1ccc2c(c1)CCN2C(C)=O [Compound Y300-1529]
remaining activity at 2400 µM: 90%

Cc1ccccc1CS(=O)(=O)N1CCCC(C)C1 (stereo not shown) [Compound Y300-2308]
remaining activity at 2200 µM (residual activity): 95%

CN(C)S(=O)(=O)Cc1ccccc1F [Compound Y300-2671]
remaining activity at 2500 µM: 95%

O=S(=O)(Cc1ccccc1F)N1CCOCC1 [Compound Y300-2685]
remaining activity at 2100 µM: 95%

Cc1ccccc1CS(=O)(=O)N(C)C [Compound Y300-2769]
remaining activity at 2800 µM: 87%

Cc1cccc(CS(=O)(=O)N2CCCC2)c1 [Compound Y300-2952]
remaining activity at 2300 µM: 98%

Cc1ccc(CS(=O)(=O)N2CCc3ccccc32)cc1 [Compound Y300-3078]
remaining activity at 2100 µM (residual activity): 112%

CCn1cc(C(=O)Nc2ccccc2C(=O)O)cn1 [Compound Y501-0105]
remaining activity at 1900 µM (residual activity): 88%

Cc1ccc(-c2noc(C(=O)O)n2)cc1 [Compound Y501-1890]
remaining activity at 2500 µM: 77%

O=C(O)c1cc(Br)cc(Br)c1O [Compound Y501-3736]
remaining activity at 1700 µM: -39%

Cc1nn(C(F)F)cc1S(=O)(=O)N1CCC(C)CC1 [Compound Y501-4822]
remaining activity at 1900 µM (residual activity): 97%

CCN(C(=O)c1n[nH]cc1Cl)c1ccccc1 [Compound Y501-5069]
remaining activity at 2400 µM: 95%

Cc1c(Br)c(C(=O)O)nn1C [Compound Y501-6296]
remaining activity at 2300 µM (residual activity): 107%

CCn1cc(Br)c(C(=O)O)n1 [Compound Y501-6363]
remaining activity at 2300 µM (residual activity): 90%

Oc1cc(-c2ccccc2)n[nH]1 [Compound Y501-8801]
remaining activity at 3100 µM: 102%

N#Cc1cnn2c1NC(C1CC1)CC2C(F)(F)F (stereo not shown) [Compound Y501-9194]
remaining activity at 2300 µM: 83%

Cc1cccc(-c2ccnc3c(C(=O)O)cnn23)c1 [Compound Y502-0116]
remaining activity at 2000 µM (fragment library screening): 6%

Cc1c(S(=O)(=O)NC2CCCCCC2)cnn1C [Compound Y502-6613]
remaining activity at 1800 µM (residual activity): 94%

CCn1nccc1[C@H](C)NC(=O)[C@H]1CCCC[C@H]1C(=O)O [Compound Y503-1571]
remaining activity at 1700 µM (fragment library screening): 93%

Cc1ccn(C(C)C(=O)O)n1 (stereo not shown) [Compound Y503-2318]
remaining activity at 3200 µM (tested concentration 3.2 mM): 95%

O=C(O)c1ccn(COc2ccc(Cl)cc2Cl)n1 [Compound Y503-2333]
remaining activity at 1700 µM (residual activity): 96%

Cc1nn(C)cc1-c1cc(C(=O)O)n[nH]1 [Compound Y503-2347]
remaining activity at 2400 µM: 95%

Cc1cc(C(=O)O)nn1C(F)F [Compound Y503-2420]
remaining activity at 2800 µM: 85%

Oc1cc(-c2ccco2)n[nH]1 [Compound Y503-3143]
remaining activity at 3300 µM (tested concentration 3.3 mM): 98%

Cn1ncc(C(=O)O)c1C(=O)NCC1CCCO1 (stereo not shown) [Compound Y504-5972]
remaining activity at 2000 µM: 96%

Cc1c(-c2cc(C(=O)O)n3nccc3n2)cnn1C [Compound Y504-7677]
remaining activity at 1900 µM: 86%

O=C(NCc1cc[nH]n1)[C@H]1CC=CC[C@H]1C(=O)O [Compound Y504-7917]
remaining activity at 2000 µM (fragment library screening): 88%

Cc1onc(C(=O)O)c1COc1ccc([N+](=O)[O-])cc1 [Compound Y504-8568]
remaining activity at 1800 µM (fragment library screening): 97%

Cc1cc(C(=O)O)n2nc(C)c(Cl)c2n1 [Compound Y504-8761]
remaining activity at 2200 µM (residual activity): 98%

OCCn1cc(Br)cn1 [Compound Y504-8814]
remaining activity at 2900 µM (tested concentration 2.9 mM): 97%

CCn1ncc(Cn2cc(Cl)c(N)n2)c1C [Compound Y504-8851]
remaining activity at 2100 µM: 96%

COCn1nc(C)c(N)c1C [Compound Y504-8876]
remaining activity at 3900 µM (residual activity of DdlB, fragment library screening, tested concentration 3.9 mM): 92%

COC(=O)Cn1nc(C(F)F)c2c1CCCC2 [Compound Y504-8961]
remaining activity at 2000 µM: 94%

CC1(C)CC(=O)c2cnc(NC3CC3)nc2C1 [Compound Y600-1530]
remaining activity at 2400 µM: 89%

CCOC1CN=C2C(C#N)=CC=CN21 (stereo not shown) [Compound Y600-6204]
remaining activity at 2200 µM: 92%

CCc1nc2ccc(C(N)=O)cc2nc1CC [Compound Z601-0869]
remaining activity at 2400 µM: 88%

CCn1c(C(=O)NC(C)C)cc2occc21 [Compound Z601-0941]
remaining activity at 2300 µM: 96%

CCC1CCCCN1C(=O)C1CCCN1C(C)=O (stereo not shown) [Compound Z601-4855]
remaining activity at 2400 µM: 74%

Cc1ccc(Cn2ccnc2C(N)=O)cc1 [Compound Z601-5404]
remaining activity at 2600 µM: 99%

CNC(=O)c1cc(C)nc2ccc(C(C)C)cc12 [Compound Z601-7136]
remaining activity at 2100 µM: 97%

Cn1c(=O)cnc2ccc(N3CCCCCC3)nc21 [Compound Z601-8402]
remaining activity at 2300 µM: 83%

CCS(=O)(=O)N1CCCN(C(=O)C2CC2)CC1 [Compound Z603-0719]
remaining activity at 2300 µM: 98%

CC(C)n1nnc2cc(C(N)=O)ccc21 [Compound Z606-2126]
remaining activity at 2400 µM: 92%

Cc1cc(C2CCCN2C(=O)c2ccc(F)c(F)c2)on1 (stereo not shown) [Compound Z632-2808]
remaining activity at 1700 µM (residual activity): 98%

CCCc1nnc(-c2ccncc2)o1 [Compound Z632-7367]
remaining activity at 2600 µM: 94%

CC(C)c1nnc(-c2cnccn2)o1 [Compound Z632-7479]
remaining activity at 2600 µM: 105%

O=C1Nc2ncccc2OC1c1ccccc1 (stereo not shown) [FF01-0341]
remaining activity at 2200 µM: 106%

CCn1c(C(=O)N2CCC(C(=O)O)CC2)cc2occc21 [FF01-0413]
remaining activity at 1900 µM (residual activity): 110%

Cc1cc2n(n1)CCC(=O)N2CCCC(=O)O [FF01-0590]
remaining activity at 2300 µM: 92%

CN1CCN(C)C1c1ccccc1O [FF01-2467]
remaining activity at 3100 µM: 93%

O=C(O)C1CCN(c2cnc(N3CCCC3)nc2)CC1 [FF01-3116]
remaining activity at 2200 µM (residual activity): 69%

CN1CCN(C(=O)CCC(=O)O)c2cccnc21 [FF01-3162]
remaining activity at 2400 µM: 65%

CC1Cc2ccc(CN)cc2N1C(=O)c1ccccc1 (stereo not shown) [FF01-3167]
remaining activity at 2300 µM (residual activity): 51%

c1cnc2[nH]cc(CCN3CCNCC3)c2c1 [FF01-3277]
remaining activity at 2200 µM (residual activity): 62%
